# Laboratory results taken from patent US7553861B2, “Dipeptidyl peptidase-IV inhibitors” (Alantos Pharmaceuticals Holding, Inc., priority 2005, dated 2009).
# Biological target: T1, DPP-IV (Homo sapiens, UniProt P27487)
# T1 construct: purchased R&D Systems GmbH, Germany
# Test: Assay for determining DP-IV inhibition (fluorometric, Gly-Pro-AMC substrate)
# Assay type: biochemical
# Conditions: Inhibition of DPP-IV, K(i) calculated from IC(50) with IC(50)=K(i)(1+[S]/Km), pH 8.0
# Description: The inhibitory activity of compounds against DPP-IV can be determined by in vitro assay systems, which are themselves well established in the art. The assay results given in Table 5 were obtained according to the following method, employing a modified version of the assay described by Leiting et al., in an article entitled “Catalytic properties and inhibition of proline-specific dipeptidyl peptidases II, IV and VII” in Biochem. J. Vol. 371, pages 525-532 (2003):
# DPP-IV activity was determined fluorometrically with Gly-Pro-AMC (where AMC stands for 7-amido-4-methylcoumarin, Bachem AG, Switzerland) as substrate. The reaction mixture contained 10 μl of 1 ng/μl DPP-IV (R&D Systems GmbH, Germany) and 80 μl of 25 mM Tris/HCl buffer, pH 8.0. Compounds were supplied as DMSO stock solutions and diluted in assay buffer to a maximal DMSO concentration of 1% in the assay. Prior to start of the reaction, the mixture was incubated for 30 min at room temperature. The reaction was started by addition of 10 μl of 100 μM substrate solution.
# The fluorescence intensity was measured at excitation and emission wavelengths of 355 and 460 nm, respectively, in a FluoStar Galaxy Multiwell Plate (BMG Labtech, Germany). Fluorescence was determined 3 and 4 minutes after start of reaction and increase in fluorescence was used for determination of enzymatic activity. IC(50) values of tested compounds were determined via plotting enzymatic activity versus concentration of test compound and determining the concentration of test compound which yields a 50% inhibition of enzymatic activity.
# K(i) values were calculated using the Michaelis-Menten equation for competitive inhibition: IC(50)=K(i)(1+[S]/Km)
# T1 sequence (P27487 whole entry): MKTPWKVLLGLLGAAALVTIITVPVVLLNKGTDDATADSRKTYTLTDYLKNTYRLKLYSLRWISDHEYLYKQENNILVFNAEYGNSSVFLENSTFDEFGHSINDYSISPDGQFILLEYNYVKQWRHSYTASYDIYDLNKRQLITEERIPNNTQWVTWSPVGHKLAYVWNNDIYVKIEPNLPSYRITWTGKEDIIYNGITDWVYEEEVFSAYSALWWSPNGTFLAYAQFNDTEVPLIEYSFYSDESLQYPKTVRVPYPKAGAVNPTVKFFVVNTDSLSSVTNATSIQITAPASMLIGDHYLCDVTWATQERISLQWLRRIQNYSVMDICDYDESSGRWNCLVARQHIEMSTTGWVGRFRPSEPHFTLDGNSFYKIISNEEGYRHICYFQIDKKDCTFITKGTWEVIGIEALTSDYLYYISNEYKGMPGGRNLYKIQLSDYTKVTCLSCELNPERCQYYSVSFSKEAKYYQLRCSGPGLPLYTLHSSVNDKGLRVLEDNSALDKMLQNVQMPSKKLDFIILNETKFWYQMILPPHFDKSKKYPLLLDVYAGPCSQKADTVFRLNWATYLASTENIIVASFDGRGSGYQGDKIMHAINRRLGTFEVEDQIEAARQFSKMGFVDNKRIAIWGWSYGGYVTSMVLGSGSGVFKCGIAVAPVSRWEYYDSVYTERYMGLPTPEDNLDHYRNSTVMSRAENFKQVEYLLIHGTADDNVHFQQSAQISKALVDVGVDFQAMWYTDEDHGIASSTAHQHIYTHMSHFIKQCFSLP
row,SMILES,Ki [nM]
1,N#C[C@@H]1CCCN1C(=O)CNCCNC1c2ccccc2CCc2ccccc21 [Example 1],51 to 500
2,N#C[C@@H]1CCCN1C(=O)CNC1c2ccccc2CCc2ccccc21 [Example 2],500 to 30000
3,CC(C)(CNC1c2ccccc2CCc2ccccc21)NCC(=O)N1CCC[C@H]1C#N [Example 3],500 to 30000
4,N#C[C@@H]1CCCN1C(=O)CNCC1c2ccccc2CCc2ccccc21 [Example 4],500 to 30000
5,N#C[C@@H]1CCCN1C(=O)CNCC(=O)N1c2ccccc2CCc2ccccc21 [Example 5],500 to 30000
6,N#C[C@@H]1CCCN1C(=O)CNCCN1c2ccccc2C=Cc2ccccc21 [Example 7],51 to 500
7,N#C[C@@H]1CCCN1C(=O)CNCCCN1c2ccccc2CCc2ccccc21 [Example 9],51 to 500
8,N#C[C@@H]1CCCN1C(=O)CNCCC1(O)c2ccccc2CCc2ccccc21 [Example 10],51 to 500
9,N#C[C@@H]1CCCN1C(=O)CNCC=C1c2ccccc2CCc2ccccc21 [Example 11],51 to 500
10,N#C[C@@H]1CCCN1C(=O)CNC1CCN(C2c3ccccc3CCc3ccccc32)CC1 [Example 12],51 to 500
11,N#C[C@@H]1CCCN1C(=O)CNC1CCN(C2c3ccccc3CCc3ccccc32)C1 (stereo partly drawn) [Example 13],51 to 500
12,N#C[C@@H]1CCCN1C(=O)CNC1CN(C2c3ccccc3CCc3ccccc32)C1 [Example 14],500 to 30000
13,N#C[C@@H]1CCCN1C(=O)CNC1c2ccc(Cl)cc2CCc2cccnc21 (stereo partly drawn) [Example 15],500 to 30000
14,N#C[C@@H]1CCCN1C(=O)CNCCC1(C#N)c2ccccc2CCc2ccccc21 [Example 16],51 to 500
15,N#C[C@@H]1CCCN1C(=O)CNCCC1(C(N)=O)c2ccccc2CCc2ccccc21 [Example 17],6 to 50
16,C[C@@H](CC1(C(N)=O)c2ccccc2CCc2ccccc21)NCC(=O)N1CCC[C@H]1C#N [Example 18],< 6
17,C[C@H](CC1(C(N)=O)c2ccccc2CCc2ccccc21)NCC(=O)N1CCC[C@H]1C#N [Example 19],6 to 50
18,N#C[C@@H]1CCCN1C(=O)CNCCNC1c2ccc(Cl)cc2CCc2cccnc21 (stereo partly drawn) [Example 20],51 to 500
19,N#C[C@@H]1CCCN1C(=O)CNCCNC1c2ccccc2CCc2cccnc21 (stereo partly drawn) [Example 21],51 to 500
20,N#C[C@@H]1CCCN1C(=O)CNCCC1(C(N)=O)c2ccc(C(N)=O)cc2CCc2ccc(F)cc21 (stereo partly drawn) [Example 22],< 6
21,N#C[C@@H]1CCCN1C(=O)CNCCC1(c2nn[nH]n2)c2ccccc2CCc2ccccc21 [Example 23],6 to 50

row,SMILES,Ki [nM]
1,N#C[C@@H]1CCCN1C(=O)CNCCC1(c2nn[nH]n2)c2ccc(F)cc2CCc2ccc(F)cc21 (stereo partly drawn) [Example 24],< 6
2,N#C[C@@H]1CCCN1C(=O)CNCCC1(c2nn[nH]n2)c2ccc(Cl)cc2CCc2cc(Cl)ccc21 [Example 25],6 to 50
3,C[C@@H](CN1C[C@@H]2C[C@H]1C(=O)N2Cc1cccc(F)c1)NCC(=O)N1CCC[C@H]1C#N [Example 26],51 to 500
4,C[C@@H](CC1(c2nn[nH]n2)c2ccc(C(N)=O)cc2CCc2cc(C(N)=O)ccc21)NCC(=O)N1CCC[C@H]1C#N [Example 27],< 6
5,CNC(=O)c1ccc2c(c1)CCc1cc(C(=O)NC)ccc1C2(C[C@H](C)NCC(=O)N1CCC[C@H]1C#N)c1nn[nH]n1 [Example 28],< 6
6,C[C@@H](CC1(c2nn[nH]n2)c2ccc(C(=O)N(C)C)cc2CCc2cc(C(=O)N(C)C)ccc21)NCC(=O)N1CCC[C@H]1C#N [Example 29],< 6
7,CCNC(=O)c1ccc2c(c1)CCc1cc(C(=O)NCC)ccc1C2(C[C@H](C)NCC(=O)N1CCC[C@H]1C#N)c1nn[nH]n1 [Example 30],< 6
8,CC(C)NC(=O)c1ccc2c(c1)CCc1cc(C(=O)NC(C)C)ccc1C2(C[C@H](C)NCC(=O)N1CCC[C@H]1C#N)c1nn[nH]n1 [Example 31],6 to 50
9,C[C@@H](CC1(c2nn[nH]n2)c2ccc(C(=O)N3CCC3)cc2CCc2cc(C(=O)N3CCC3)ccc21)NCC(=O)N1CCC[C@H]1C#N [Example 32],< 6
10,C[C@@H](CC1(c2nn[nH]n2)c2ccc(C(=O)N3CCOCC3)cc2CCc2cc(C(=O)N3CCOCC3)ccc21)NCC(=O)N1CCC[C@H]1C#N [Example 33],< 6
11,N#C[C@@H]1CCCN1C(=O)CNCCC1(c2nn[nH]n2)c2ccc(C(N)=O)cc2CCc2cc(C(N)=O)ccc21 [Example 34],< 6
12,CNC(=O)c1ccc2c(c1)CCc1cc(C(=O)NC)ccc1C2(CCNCC(=O)N1CCC[C@H]1C#N)c1nn[nH]n1 [Example 35],< 6
13,CN(C)C(=O)c1ccc2c(c1)CCc1cc(C(=O)N(C)C)ccc1C2(CCNCC(=O)N1CCC[C@H]1C#N)c1nn[nH]n1 [Example 36],6 to 50
14,C[C@@H](CC1(C(N)=O)c2ccc(C(=O)N(C)C)cc2CCc2cc(C(=O)N(C)C)ccc21)NCC(=O)N1CCC[C@H]1C#N [Example 39],6 to 50
15,C[C@@H](CC1(c2noc(C(F)(F)F)n2)c2ccc(C(=O)N(C)C)cc2CCc2cc(C(=O)N(C)C)ccc21)NCC(=O)N1CCC[C@H]1C#N [Example 40],500 to 30000
16,COC(=O)c1ccc2c(c1)CCc1cc(C(=O)OC)ccc1C2(C[C@H](C)NCC(=O)N1CCC[C@H]1C#N)c1nn[nH]n1 [Example 43],< 6
17,C[C@@H](CC1(c2nn[nH]n2)c2ccc(C(=O)O)cc2CCc2cc(C(=O)O)ccc21)NCC(=O)N1CCC[C@H]1C#N [Example 44],< 6
18,N#C[C@@H]1CCCN1C(=O)CNCCC1(c2nn[nH]n2)c2cc(F)ccc2CCc2ccc(C(N)=O)cc21 (stereo partly drawn) [Example 45],6 to 50
19,CN1C(=O)c2ccccc2C(CCNCC(=O)N2CCC[C@H]2C#N)(c2nn[nH]n2)c2ccccc21 (stereo partly drawn) [Example 46],500 to 30000
20,N#C[C@@H]1C[C@@H]2C[C@@H]2N1C(=O)CNCCC1(c2nn[nH]n2)c2ccc(C(N)=O)cc2CCc2cc(C(N)=O)ccc21 [Example 47],< 6
21,N#C[C@@H]1CCCN1C(=O)[C@@H](N)CN1C[C@@H]2C[C@H]1C(=O)N2Cc1cccc(F)c1 [Example 48],< 6

row,SMILES,Ki [nM]
1,N#C[C@@H]1CCCN1C(=O)[C@@H](N)CN1C[C@@H]2C[C@H]1C(=O)N2Cc1c(Cl)cccc1Cl [Example 49],< 6
2,C[C@@H](c1ccc(F)cc1)N1C(=O)[C@@H]2CC1CN2C[C@H](N)C(=O)N1CCSC1 [Example 50],6 to 50
3,N#C[C@@H]1CCCN1C(=O)[C@@H](N)CN1CC2C[C@H]1C(=O)N2Cc1cc(F)cc(F)c1 [Example 51],< 6
4,N#C[C@@H]1C[C@@H]2C[C@@H]2N1C(=O)[C@@H](N)CN1CC2C[C@H]1C(=O)N2Cc1cc(F)cc(F)c1 [Example 52],< 6
5,N#Cc1cccc(CN2C(=O)[C@@H]3CC2CN3C[C@H](N)C(=O)N2CCC[C@H]2C#N)c1 [Example 53],< 6
6,N#Cc1cccc(CN2C(=O)[C@@H]3CC2CN3C[C@H](N)C(=O)N2[C@H](C#N)C[C@@H]3C[C@@H]32)c1 [Example 54],< 6
7,N#Cc1ccc(CN2C(=O)[C@@H]3CC2CN3C[C@H](N)C(=O)N2CCC[C@H]2C#N)cc1 [Example 55],< 6
8,C[C@H](c1ccc(F)cc1)N1C(=O)[C@@H]2CC1CN2C[C@H](N)C(=O)N1CCC[C@H]1C#N [Example 56],< 6
9,C[C@@H](c1ccc(F)cc1)N1C(=O)[C@@H]2CC1CN2C[C@H](N)C(=O)N1CCC[C@H]1C#N [Example 57],< 6
10,C[C@@H](c1ccc(F)cc1)N1C(=O)[C@@H]2CC1CN2C[C@H](N)C(=O)N1[C@H](C#N)C[C@@H]2C[C@@H]21 [Example 58],< 6
11,CC(C)(c1ccc(F)cc1)N1C(=O)[C@@H]2CC1CN2C[C@H](N)C(=O)N1CCC[C@H]1C#N [Example 59],< 6
12,N#C[C@@H]1CCCN1C(=O)[C@@H](N)CN1CC2C[C@H]1C(=O)N2Cc1cccc(C(N)=O)c1 [Example 60],< 6
13,N#C[C@@H]1CCCN1C(=O)[C@@H](N)CN1CC2C[C@H]1C(=O)N2Cc1ccc(C(N)=O)cc1 [Example 61],< 6
14,CC(C)(c1ccc(F)cc1)N1C(=O)[C@@H]2CC1CN2C[C@H](N)C(=O)N1[C@H](C#N)C[C@@H]2C[C@@H]21 [Example 62],< 6
15,N#C[C@@H]1CCCN1C(=O)[C@@H]1C[C@H](N2C[C@@H]3C[C@H]2C(=O)N3Cc2cccc(F)c2)CN1 [Example 63],< 6
16,N#C[C@@H]1C[C@@H]2C[C@@H]2N1C(=O)[C@@H](N)CN1C[C@@H]2C[C@H]1C(=O)N2Cc1cccc(F)c1 [Example 64],< 6
17,N#C[C@@H]1CCCN1C(=O)[C@@H](N)CN1C(=O)[C@@H]2C[C@H]1CN2S(=O)(=O)c1cccc(F)c1 [Example 65],6 to 50
18,N#C[C@@H]1CCCN1C(=O)[C@@H](N)CN1C(=O)[C@@H]2C[C@H]1CN2S(=O)(=O)c1cccs1 [Example 66],6 to 50
19,N#C[C@@H]1CCCN1C(=O)[C@@H](N)CN1C(=O)[C@@H]2C[C@H]1CN2S(=O)(=O)c1ccsc1 [Example 67],< 6
20,COC(=O)c1sccc1S(=O)(=O)N1C[C@@H]2C[C@H]1C(=O)N2C[C@H](N)C(=O)N1CCC[C@H]1C#N [Example 68],6 to 50
21,N#C[C@@H]1CCCN1C(=O)[C@@H](N)CN1C(=O)[C@@H]2C[C@H]1CN2C(=O)c1cccs1 [Example 69],6 to 50
